These results are taken from a melting point compilation (Tetko et al.; mined from patent text by program, amines drawn as free bases though some values may be those of a salt).

One may read the melting point as the temperature of the solid-liquid transition.

Turning to `CCC(=NO)c1nc(C)nc2c1c(C)c(C)n2-c1c(C)cc(C)cc1C`, the melting point was in the range of 84 to 87 °C.

As for `CCOC(=O)COc1c(C(C)C)cc(C(O)(C(F)(F)F)C(F)(F)F)cc1C(C)C`, the melting point lay within 91 to 93 °C.

For `O=C1c2ccccc2C(=O)N1CCc1cc(-c2ccc(F)cc2)no1`, the melting point is 155 to 156 °C.

On to `COC(=O)c1cccc(-c2nc(COc3ccc(CO)cc3OC)c(C)o2)c1`, for which the melting point lay in the range of 141 to 142 °C.

`C#Cc1cc(C)cc(C)c1-c1c(O)c(C)nn(C)c1=O`: the melting point was in the range of 179 to 181 °C.

`Cc1cc(OCC(=O)O)c2c(c1C)-c1nc(SCCC(c3ccccc3)c3ccccc3)sc1C2` came in with a melting point of 142 to 144 °C.

`CC(C)(C)OC(=O)N[C@H]1CN(N=C(c2ccccc2)c2ccccc2)C1=O` gave a melting point of 167 to 170 °C.

In the case of `CN1C(=O)c2cccnc2Nc2ncccc21`, the melting point was 230 to 232 °C.

Consider `CCOC(=O)C(=O)NNc1ccc(NC(=S)NC)cc1`, for which the melting point was 168 to 169 °C.

In the case of `Cc1cc(NCCO)c([N+](=O)[O-])cc1O`, the melting point turned out to be 174 °C.

`O=c1c(-c2ccccc2)c(Cn2cnc3ccccc32)oc2ccc(Br)cc12` returned a melting point of 192 to 197 °C.

For `CCOC(=O)CCN1CCN(CC=CC(=O)Nc2cc3c(Nc4ccc(F)c(Cl)c4)ncnc3cc2OCC2CC2)CC1`, the melting point fell in the range of 183 to 185 °C.

`COc1cccc(C(=O)O)c1N` returned a melting point of 172 to 175 °C.

Compound `Cc1cc(N(C)C)nc2ccc(C=O)cc12` displayed a melting point of 96 to 99 °C.

As for `Cc1ccc(N2C(=O)C(Cl)=C(C(=O)c3ccc(C(C)C)cc3)C2c2ccc(OC(F)(F)F)cc2)nn1` (stereo unspecified), the melting point came out at 293 °C.

Regarding `CCc1cc(Cl)c(NC(C)=O)c(Cl)n1`, the melting point was 142 °C.

On to `N#Cc1ccccc1N=Nc1ccc(O)cc1`, for which the melting point lay in the range of 201 to 203 °C.

Regarding `COc1cc(C(O)c2c(O)c(=O)ccn2CCO)ccc1O` (stereo unspecified), the melting point is 179 to 190 °C.

As for `Nc1cccc2c1N1CCN=C1S2`, the melting point was found to be 229 °C.

On to `O=C1CC(CP(=O)(c2ccccc2)c2ccccc2)O1` (stereo unspecified), for which the melting point is 154 to 155 °C.

With `CCCCc1c(C)c(NC(=O)CC(C)(C)C)c(C)c2c1OCC2c1ccc(C(C)C)cc1` (stereo unspecified), the melting point fell in the range of 149 to 151 °C.

Take `CNc1cc(S(=O)(=O)c2ccc(N)cc2)cc(Br)n1`: the melting point fell in the range of 171 to 173 °C.

`CC(=O)ONC(=N)c1ccc(NC(=O)CCCC(=O)Nc2ccc(C(=N)NOC(C)=O)cc2)cc1` yielded a melting point of 225 to 228 °C.

Compound `CN1C(=O)C(=O)c2cc(I)ccc21` had a melting point of 160 to 162 °C.

Compound `CS(=O)(=O)OCCN(CCOS(C)(=O)=O)c1cc(C(=O)O)c([N+](=O)[O-])cc1[N+](=O)[O-]` had a melting point of 200 to 210 °C.

As for `O=C(Nc1ccc(-n2nc(C(F)(F)F)cc2C(F)(F)F)cc1)c1cccc(Br)c1`, the melting point fell in the range of 158 to 160 °C.

On to `COC(=O)N(C)CCc1ccc(N)c(CS(=O)(=O)c2ccccc2)c1`, for which the melting point lay in the range of 95 to 96 °C.

In turn, `CCOCC1=NC(=Cc2cccs2)C(=O)O1` displayed a melting point of 102 °C.

For `COc1ccc(-c2c(-c3ccccc3)c(Sc3ccc4c(c3)CC[C@H]3N(C)C(=O)CC[C@]43C)nc3ccccc23)cc1`, the melting point is 239 to 242 °C.

Regarding `COc1ccc(NC(=O)NC2N=C(c3ccccc3)c3ccccc3N(C)C2=O)cc1` (stereo unspecified), the melting point fell in the range of 261 to 263 °C.

`COc1ccc2nc(COc3ccc(CC(Nc4ccccc4C(=O)c4ccccc4)C(=O)O)cc3)n(C)c2c1` (stereo unspecified) showed a melting point of 140 to 146 °C.

`COC(=O)C1CCC2C3CCC4CC(O)C(O)CC4(C)C3C(NCCC(C)C)CC12C` (stereo unspecified) registered a melting point of 159 to 161 °C.

For the compound `CCn1ncc2c3onc(-c4ccc(OC)cc4)c3cnc21`, the melting point lay within 156 to 157 °C.

Regarding `COC(=O)C1=C(N)NC(C)=C([N+](=O)[O-])C1c1ccccc1OCCCCCN1CCN(c2ccccc2OC)CC1` (stereo unspecified), the melting point was 167 °C.

Take `COc1ccc(CCNC(=O)COc2ccc(C[C@H](OC)C(=O)O)cc2)cc1`: the melting point fell in the range of 97 to 98 °C.

The compound `C=Cc1cc(CNC(=O)OC(C)(C)C)cc(Cl)c1NS(C)(=O)=O` gave a melting point of 133 to 135 °C.

`CCCCCCCCCCCCc1nnn(C(C(=O)Nc2c(OC)cc(OC)cc2OC)c2ccccc2)n1` (stereo unspecified) had a melting point of 141 to 145 °C.

`Cc1ccc(S(=O)(=O)NC(=O)Nc2nc(-c3ccccc3)c(-c3ccc(=O)n(C(C)C)n3)s2)cc1` came in with a melting point of 172 to 174 °C.

`COc1ncccc1NC(=NC#N)NC(NC(=O)c1cccc(Cl)c1)C(C)(Cl)Cl` (stereo unspecified): the melting point fell in the range of 115 to 116 °C.

As to `CCCn1ncc2c(=O)[nH]c(-c3cc(C(=O)O)ccc3OCC)nc21`, the melting point fell in the range of 277 to 279 °C.

`Cc1nc(-c2ccc(C(F)(F)F)cc2)oc1COc1ccc(Cc2nn[nH]n2)cc1`: the melting point is 208 °C.

As for `NC(=O)c1ccc(-c2ccc(-c3ccc(C(F)(F)F)cc3)o2)cc1`, the melting point was in the range of 263 to 264 °C.

In turn, `Cc1cn(NCc2cc(C(C)(C)C)c(O)c(C(C)(C)C)c2)cn1` gave a melting point of 150 to 151 °C.

`O=C1CC(NC(=O)C2CCCN3C(=O)CCC(NC(=O)c4ccc5c(c4)OCO5)C(=O)N23)C(OCc2ccccc2)O1` (stereo unspecified): the melting point fell in the range of 135 to 140 °C.

Compound `CSc1cc(C)nc(SC)c1NC(=O)CN1CCN(CCSc2nc3ccccc3o2)CC1` returned a melting point of 140 to 141 °C.

As for `CCOCc1cc2cc(Br)ccc2oc1=Nc1ccccc1`, the melting point was in the range of 78 to 80 °C.

The compound `N#CC1(Nc2ccc(Cl)c(Cl)c2)CCN(C(=O)c2cc(C(F)(F)F)cc(C(F)(F)F)c2)CC1` had a melting point of 195 to 197 °C.

In turn, `COc1ccc(-c2cccn2-c2ccc(S(C)(=O)=O)cc2)cc1` gave a melting point of 183 to 184 °C.

Turning to `C#Cc1cn(C)c2cc(-c3ccccc3Cl)c3c(c12)C(=O)NC3=O`, the melting point lay in the range of 125 to 129 °C.

In turn, `CCCCOc1cc(CC(=O)O)n(Cc2ccc(Cl)cc2Cl)n1` registered a melting point of 105 to 108 °C.

Compound `N#Cc1cnn(Cc2ccccc2)c1` showed a melting point of 61 to 63 °C.

`CCOC(=O)c1c(C(F)F)nc(C(F)(F)F)c(C(=O)OC)c1NC(C)C` registered a melting point of 37 to 39 °C.

The compound `CNC(=O)c1ccc(Nc2nc(OCC3CCCCC3)c3nc[nH]c3n2)cc1` displayed a melting point of 139 to 142 °C.

In turn, `O=CN(O)C(CO)CS(=O)(=O)c1ccc(Oc2ccc(OC(F)(F)F)cc2)cc1` (stereo unspecified) registered a melting point of 115 to 117 °C.

`Cn1nc(-c2ccc(F)cc2)c(-c2ccncc2)c1CCCc1ccccc1` registered a melting point of 83 to 87 °C.

`CCOC(=O)c1cccc(-c2nc(-c3cc(C)oc3C)cs2)c1` gave a melting point of 100 to 101 °C.

`COc1ccc2c(c1)c(C(C)C(=O)O)cc(=O)n2-c1ccc(Cl)cc1` (stereo unspecified) gave a melting point of 177 to 178 °C.

For the compound `Nc1cc(C=C2OC(=O)c3ccccc32)ccc1Cl`, the melting point was 148 to 153 °C.

`Oc1ccc2c(c1)COc1c-2cc2ccc(O)cc2c1-c1cccc(C(F)(F)F)c1` gave a melting point of 228 to 231 °C.

`COc1cc2c(Nc3ccc(Sc4nccn4C)c(Cl)c3)c(C#N)cnc2cc1/C=C/CCCN1CCN(C)CC1` came in with a melting point of 215 to 221 °C.

`CCCCCNc1ncnc2c(C(C)C)n[nH]c12`: the melting point lay in the range of 73 to 75 °C.

`O=c1cc(-c2ccc(O)c(Cl)c2)oc2ncccc12` registered a melting point of 259 to 262 °C.

As to `CCOC(=O)Nc1ccc(C(=O)Nc2ccc3ccc(OC)nc3n2)cc1`, the melting point was 200 °C.

In turn, `COC(=O)c1ccccc1-c1ccc(N(C)C)cn1` came in with a melting point of 161 to 163 °C.

As for `CC(=O)c1cc(NS(C)(=O)=O)c(Sc2ccc(F)cc2F)cc1[N+](=O)[O-]`, the melting point lay within 169 to 170 °C.

`CCCN1C(=O)C2(CC)CC(c3ccc([N+](=O)[O-])cc3)(C2)C1=O` displayed a melting point of 121 to 122 °C.

In the case of `CC(C)[C@@H]1CC[C@@H](C)C[C@H]1OCC(=O)N(C)CCO`, the melting point was in the range of 65 to 66 °C.

`CN1CCC(c2ccc(-c3ccccc3)cc2)(C(C)(C)O)CC1` yielded a melting point of 192 to 193 °C.

The compound `CC1Oc2cc3nc(S)[nH]c3cc2O1` showed a melting point of over 300 °C.

In turn, `COc1ccccc1C1NC(=O)C(C)S1` (stereo unspecified) yielded a melting point of 187 to 188 °C.

With `N#CC(C#N)=Cc1ccc(OS(=O)(=O)c2cc(Cl)c(Cl)cc2Cl)cc1`, the melting point is 165 to 166 °C.

Compound `OC(CC1CCN(CC2CC2)CC1)(c1ccc(F)cc1)c1ccc(F)cc1` registered a melting point of 119 to 121 °C.

In turn, `Cc1nsc(NC(=O)C(C)c2ccc3oc(-c4cccc(Cl)c4Cl)nc3c2)c1Cl` (stereo unspecified) returned a melting point of 158 to 161 °C.

In turn, `O=C(O)C1Cc2c(c(Cl)cc3c(-c4ccccc4)noc23)O1` (stereo unspecified) displayed a melting point of 221 to 224 °C.

As for `NC(=O)c1c(N)oc2c(-c3ccccc3)cccc2c1=O`, the melting point was 233 to 235 °C.

In the case of `CC/C=C\CCC(C#N)(C#N)Cc1ccc(Cl)cc1`, the melting point stood at 44.8 °C.

Take `O=C(Cn1ccnc1[N+](=O)[O-])NCCO`: the melting point lay in the range of 164 to 165 °C.

Compound `N#CN=C1NCCN1CC#CCNC(=O)C(O)(c1ccccc1)C1CCCCC1` (stereo unspecified) returned a melting point of 207 to 210 °C.

The compound `Nc1cccc(-c2ccc(CCN3CCN(C(=O)Cc4ccc(Cl)cc4)CC3)cc2)n1` showed a melting point of 205 °C.

In the case of `NC(=O)c1ccccc1C(=O)N(C[C@H]1CN(c2ccc(N3CCOCC3=O)cc2)C(=O)O1)C[C@H]1CN(c2ccc(N3CCOCC3=O)cc2)C(=O)O1`, the melting point was found to be 204 °C.

In the case of `COc1ccc(N2CCN(c3c(C)c(C)c4c(c3C)CC(C)(CN)O4)CC2)cc1` (stereo unspecified), the melting point was 134 to 137 °C.

`CN1CCN(C(=O)c2ccc3cc(-c4csc(N(C)S(=O)(=O)c5ccccc5)n4)c(=O)[nH]c3c2)CC1` displayed a melting point of 242 to 247 °C.

Turning to `CC#CCOc1ccc(S(=O)C(C(=O)NO)C2CCCCC2)cc1` (stereo unspecified), the melting point turned out to be 188 °C.

Compound `CCOC(=O)c1cn(Cc2ccccn2)nc1S(=O)(=O)NC(=O)Nc1nc(OC)cc(OC)n1` registered a melting point of 95 to 96 °C.

Compound `Cc1nc2ccccc2n1-c1ccc(C#N)cc1` had a melting point of 166 to 168 °C.

Compound `Cc1nc2cccc3n(CCCNS(C)(=O)=O)c(=O)c1n23` came in with a melting point of 184 to 185 °C.
